# In patent US20090017139A1, “Iodine therapy dosing for treating medical conditions” (priority 2007, published 2009):
# Where two headings read alike, the source gives them in different places.
# Assays:
# [1] = reacts with water at neutral pH; cited from earlier work
# women with mastalgia = conditions: cited from earlier work; for patients reporting headaches: 6 month study
# breast cancer cell lines = conditions: cited from earlier work
# estrogen receptor = assay: Example 5: immunocytochemical detection of estrogen receptor in vaginal smears after 2 months of daily I2; type: in vivo, Sprague-Dawley rats; conditions: for Immunocytochemical Detection of Estrogen Receptor, Scores (mean ± SD), End: after 2 months daily dosing; for Immunocytochemical Detection of Estrogen Receptor, Scores (mean ± SD), End / Immunocytochemical Detection of Estrogen Receptor, Scores (mean ± SD), Baseline: scale +1 to +3, dissolved IoGen tablets; for Immunocytochemical Detection of Estrogen Receptor, Scores (mean ± SD), Baseline: before dosing
# Excerpt: A total of 24 nulliparous and nonpregnant female Sprague-Dawley rats were received from Charles River Laboratories, Kingston, N.Y. The animals were 10 weeks of age and were examined for signs of disease or injury upon receipt. The animals were housed in stainless steel cages and fed LabDiet™ Certified Rodent Chow 5002 (PMI Feeds, Inc., a subsidiary of Purina Mills, Inc.) ad libitum and were provided fresh filtered tap water ad libitum. Environmental controls were set to maintain a temperature of 18 to 26° C. and a relative humidity of 30 to 70%. A 12-hour light/dark cycle was employed and the room underwent a minimum of ten fresh air changes/hour.
# The animals were allowed to acclimate to laboratory conditions for 2 weeks. No abnormal findings excluding animals from study were noted. The animals were released from conditioning following an examination. Each animal was identified with a unique number that was indicated by ear punch. Cage labels, color-coded by group, identified each cage. The animals were maintained at laboratory conditions for an additional 2 weeks and then randomized into treatment groups by weight.
# Tablets of IoGen, a registered trademark of Symbollon Pharmaceuticals Inc. of Framingham Mass. USA were dissolved in distilled water. IoGen tablets are compositions of iodide and iodate in a pharmaceutically acceptable carrier which will form molecular iodine “I2” once in contact with the gastric fluid in the stomach via a diffusion controlled oxidation reduction reaction as taught in U.S. Pat. No. 5,885,592 the disclosure of which is incorporated herein by reference. For this example the IoGen tablets weighted 400 mg and contained the equivalent of 6 mg of I2 in the form of iodide and iodate. The dissolved IoGen tables were used to provide defined daily doses of I2 to rats according to Table 1 below.
# After randomization vaginal smears were taken from rats using a cotton swab; the swab was inserted into the vagina and rotated 360° in a clockwise direction, then the swab was smeared onto a glass slide and the smear was fixed in 3.7% formaldehyde with phosphate buffered saline (PBS) for 15 minutes. The slides were washed in PBS for 5 minutes and subsequently immersed in cold methanol and acetone (both at −10° C.) for 3 minutes. After a final rinse in cold PBS for 5 minutes the slides were stored at −20° C. in a solution of PBS-glycerol.
# Rats were then dosed daily for the next 2 months according to the schedule in Table 1. […] After 2 months of daily dosing vaginal swabs were taken again and slides were prepared as on day 1 of the dosing regimen.
# Immunocytochemical (IC) detection of estrogen receptor (hereafter “ER”) status was accomplished using mouse monoclonal antibody 6F11 from Vector Laboratories (Burlingame, Calif.). A gentle stream of 10 mM citrate buffer (pH 6.0) was passed over each slide for 45 minutes and then a 1/25 dilution of the antibody was incubated with slides at room temperature for 30 minutes. Slides were washed and the Vectastain ABC Kit for Mouse IgG (Vector Laboratories; Burlingame, Calif.) was used to visualize ER. The chromophone 3,3′ diaminobenzidine and peroxidase were used to stain areas of the slides that contained ER. The intensity of staining was scored semi quantitatively on a scale of +1 to +3. Each dosing group contained 6 animals.
# [2] = system: euthyroid mastalgia patients; assay: Example 1: multi-center, randomized, double-blind, placebo-controlled 6 month mastalgia study; type: in vivo, human; conditions: for change in the Lewin Overall pain scale: 6.0 mg/d
# Method: A multi-center, randomized, double-blind, placebo-controlled study dosed patients for 6 months with 0.0, 1.5, 3.0 and 6.0 mg I2 daily. Healthy euthyroid mastalgia patients between the ages of 18 and 50 who were unresponsive to conservative treatments like OTC analgesics were eligible for the study. Subjects needed to identify a history of at least six months of moderate or severe breast pain and document at least 6 days per cycle of moderate or severe pain in a daily dairy (FIG. 1 below).
# [3] = system: female patients with fibrocystic breast condition; assay: Example 2: 36 month study, treatment emergent thyroid status in iodine adapted patients; type: in vivo, human; conditions: for Hyperthyroidism Overt ↓TSH ↑T4 / Hyperthyroidism Subclinical ↓TSH / Hypothyroidism Overt ↑TSH (5-10) ↓T4 / Hypothyroidism Overt ↑TSH (10-20) ↓T4 / Hypothyroidism Overt ↑TSH (>20) ↓T4 / Hypothyroidism Subclinical ↑TSH (5-10) / Hypothyroidism Subclinical ↑TSH (10-20) / Hypothyroidism Subclinical ↑TSH (>20): iodine adapted, patients (percent of dose group)
# Method: Female patients already receiving aqueous I2 therapy for fibrocystic breast condition were enrolled in study that ran for 36 months. Patients in this study were dosed at I2 levels that ranged from 3 to 12 mg/d. A total of 923 patients were enrolled; over 700 patients remained on drug for at least 2 years. The ages of participants ranged from 17 to 78 years with an average age of 47.4 years.
# Variations in treatment emergent thyroid status were evaluated based on TSH and T4 values (see Table 1). […] Patients were categorized sub-clinical hypothyroid if TSH was elevated and T4 values were normal; patients with depressed T4 values were considered overtly hypothyroid.
# [4] = I2 compared to iodide, cited from earlier work
# [5] = cited from earlier work
compound,measurement,setting,value
"II [I2, molecular iodine]",maximum period of storage in an aqueous environment,[1],2 to 8 h
same,patients reporting headaches,women with mastalgia; 1.5 mg/day group,6.3%
same,patients reporting headaches,women with mastalgia; 3.0 mg/day group,26%
same,patients reporting headaches,women with mastalgia; 6.0 mg/day group,12%
same,"change in five thyroid function tests (T3, T4, T uptake, TSH, FT3)",women with mastalgia; any treatment group,No statistically significant change
same,effect on estrogen receptor concentration,breast cancer cell lines,reducing the concentration of estrogen receptor
same,"Immunocytochemical Detection of Estrogen Receptor, Scores (mean ± SD), End","estrogen receptor; Group 2, .06 mg I2/kg/day",1.167 ± 0.752
same,"Immunocytochemical Detection of Estrogen Receptor, Scores (mean ± SD), Baseline","estrogen receptor; Group 2, .06 mg I2/kg/day",2.000 ± 0.632
same,"Immunocytochemical Detection of Estrogen Receptor, Scores (mean ± SD), End","estrogen receptor; Group 3, 0.2 mg I2/kg/day",1.167 ± 0.408
same,"Immunocytochemical Detection of Estrogen Receptor, Scores (mean ± SD), Baseline","estrogen receptor; Group 3, 0.2 mg I2/kg/day",2.167 ± 0.753
same,"Immunocytochemical Detection of Estrogen Receptor, Scores (mean ± SD), End","estrogen receptor; Group 4, 2 mg I2/kg/day",0.833 ± 0.408
same,"Immunocytochemical Detection of Estrogen Receptor, Scores (mean ± SD), Baseline","estrogen receptor; Group 4, 2 mg I2/kg/day",2.333 ± 0.516
same,effect of daily treatment on ER in the endometrium,estrogen receptor; trend across the 3 dosing groups p<0.001,down regulation of ER
same,"change from baseline to end in ER score, placebo versus all rats that received I2","estrogen receptor; unpaired t-test, p=0.015",statistically significant difference
same,change in the Lewin Overall pain scale,[2]; month 3,45.4%
same,change in the Lewin Overall pain scale,[2]; month 6,45.0%
same,magnitude of pain reduction versus dose,"[2]; 1.5, 3.0, 6.0 mg daily, month 3 and month 6 (p<0.01)",increased with dose
same,difference among dosing groups in adverse events or thyroid related clinical chemistry tests,[2]; first 3 months of treatment,did not find any difference
same,proportion of patients with sub-clinical hypothyroidism,[3]; 3 mg dose group,13%
same,rate of all sub-clinical conditions,[3]; 3 mg dose group,18.3%
same,proportion of patients with sub-clinical hypothyroidism,[3]; 6 mg dose group,16.5%
same,rate of all sub-clinical conditions,[3]; 6 mg dose group,22.2%
same,Hyperthyroidism Overt ↓TSH ↑T4,[3]; I2 3.0 mg/d,1 (0.3)
same,Hyperthyroidism Subclinical ↓TSH,[3]; I2 3.0 mg/d,16 (5.3)
same,Hypothyroidism Overt ↑TSH (5-10) ↓T4,[3]; I2 3.0 mg/d,2 (0.4)
same,Hypothyroidism Overt ↑TSH (10-20) ↓T4,[3]; I2 3.0 mg/d,0 (0.0)
same,Hypothyroidism Overt ↑TSH (>20) ↓T4,[3]; I2 3.0 mg/d,0 (0.0)
same,Hypothyroidism Subclinical ↑TSH (5-10),[3]; I2 3.0 mg/d,27 (9.0)
same,Hypothyroidism Subclinical ↑TSH (10-20),[3]; I2 3.0 mg/d,10 (3.3)
same,Hypothyroidism Subclinical ↑TSH (>20),[3]; I2 3.0 mg/d,2 (0.7)
same,Hyperthyroidism Overt ↓TSH ↑T4,[3]; I2 6.0 mg/d,1 (0.2)
same,Hyperthyroidism Subclinical ↓TSH,[3]; I2 6.0 mg/d,28 (5.7)
same,Hypothyroidism Overt ↑TSH (5-10) ↓T4,[3]; I2 6.0 mg/d,0 (0.0)
same,Hypothyroidism Overt ↑TSH (10-20) ↓T4,[3]; I2 6.0 mg/d,2 (0.4)
same,Hypothyroidism Overt ↑TSH (>20) ↓T4,[3]; I2 6.0 mg/d,2 (0.4)
same,Hypothyroidism Subclinical ↑TSH (5-10),[3]; I2 6.0 mg/d,70 (14)
same,Hypothyroidism Subclinical ↑TSH (10-20),[3]; I2 6.0 mg/d,10 (2.0)
same,Hypothyroidism Subclinical ↑TSH (>20),[3]; I2 6.0 mg/d,1 (0.2)
same,Hyperthyroidism Overt ↓TSH ↑T4,[3]; I2 9.0 mg/d,0 (0.0)
same,Hyperthyroidism Subclinical ↓TSH,[3]; I2 9.0 mg/d,0 (0.0)
same,Hypothyroidism Overt ↑TSH (5-10) ↓T4,[3]; I2 9.0 mg/d,0 (0.0)
same,Hypothyroidism Overt ↑TSH (10-20) ↓T4,[3]; I2 9.0 mg/d,0 (0.0)
same,Hypothyroidism Overt ↑TSH (>20) ↓T4,[3]; I2 9.0 mg/d,0 (0.0)
same,Hypothyroidism Subclinical ↑TSH (5-10),[3]; I2 9.0 mg/d,0 (0.0)
same,Hypothyroidism Subclinical ↑TSH (10-20),[3]; I2 9.0 mg/d,1 (6.3)
same,Hypothyroidism Subclinical ↑TSH (>20),[3]; I2 9.0 mg/d,1 (6.3)
same,Hyperthyroidism Overt ↓TSH ↑T4,[3]; I2 12.0 mg/d,0 (0.0)
same,Hyperthyroidism Subclinical ↓TSH,[3]; I2 12.0 mg/d,1 (25)
same,Hypothyroidism Overt ↑TSH (5-10) ↓T4,[3]; I2 12.0 mg/d,0 (0.0)
same,Hypothyroidism Overt ↑TSH (10-20) ↓T4,[3]; I2 12.0 mg/d,0 (0.0)
same,Hypothyroidism Overt ↑TSH (>20) ↓T4,[3]; I2 12.0 mg/d,0 (0.0)
same,Hypothyroidism Subclinical ↑TSH (5-10),[3]; I2 12.0 mg/d,0 (0.0)
same,Hypothyroidism Subclinical ↑TSH (10-20),[3]; I2 12.0 mg/d,0 (0.0)
same,Hypothyroidism Subclinical ↑TSH (>20),[3]; I2 12.0 mg/d,0 (0.0)
same,"Overt hypothyroidism, patients (second statement, compared to prevalence of overt hyperthyroidism)","[3]; all patients, 3 to 12 mg/d",0.5%
same,overall incidence of treatment emergent sub-clinical hyper- or hypothyroidism,"[3]; all patients, 3 to 12 mg/d",20.6%
same,"Overt hypothyroidism, patients","[3]; all patients, 3 to 12 mg/d, first statement",0.2%
same,percentage of administered iodine retained in the stomach contents and covalently bound to a lipid material,[4],larger percentage
same,"percentage of iodine retained in thyroid 72 hours after administration, compared to iodide",[4],significantly less
same,"retention of iodine in thyroid at 72 hours, less than with iodide","[4]; fasted rats, acute exposure",about 30%
same,iodine uptake in thyroid compared to iodide,[5]; oral administration,half as much
same,reduction of thyroidal uptake by perchlorate,"[5]; perchlorate 6 mg i.p., 2 hr predosing",40%
